Measured values published in PubChem BioAssay (NCI).
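Where inhibition never reached the appropriate level, the endpoint shown equals the highest concentration tested. Otherwise, values were interpolated linearly from a five-concentration, 48-hour dose response in 96-well plates. The concentration for 50% growth inhibition is given as GI50. TGI denotes the concentration required for complete inhibition of growth.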

Key:
Experiment in all cases: growth of human tumour cells (NCI), 48 h
786-0 renal = test system: 786-0 renal
A498 renal = test system: A498 renal
A549 NSCLC = test system: A549 NSCLC
ACHN renal = test system: ACHN renal
CAKI-1 renal = test system: CAKI-1 renal
CCRF-CEM leukemia = test system: CCRF-CEM leukemia
COLO 205 colon = test system: COLO 205 colon
DU-145 prostate = test system: DU-145 prostate
EKVX NSCLC = test system: EKVX NSCLC
HCC-2998 colon = test system: HCC-2998 colon
HCT-116 colon = test system: HCT-116 colon
HCT-15 colon = test system: HCT-15 colon
HL-60(TB) leukemia = test system: HL-60(TB) leukemia
HOP-62 NSCLC = test system: HOP-62 NSCLC
HOP-92 NSCLC = test system: HOP-92 NSCLC
HS 578T breast = test system: HS 578T breast
HT29 colon = test system: HT29 colon
IGROV1 ovarian = test system: IGROV1 ovarian
K-562 leukemia = test system: K-562 leukemia
KM12 colon = test system: KM12 colon
M14 melanoma = test system: M14 melanoma
MCF7 breast = test system: MCF7 breast
MDA-MB-231 breast = test system: MDA-MB-231 breast
MDA-MB-435 = test system: MDA-MB-435
NCI-H226 lung = test system: NCI-H226 lung
NCI-H23 lung = test system: NCI-H23 lung
NCI-H522 lung = test system: NCI-H522 lung
NCI/ADR-RES ovarian = test system: NCI/ADR-RES ovarian
OVCAR-3 ovarian = test system: OVCAR-3 ovarian
OVCAR-4 ovarian = test system: OVCAR-4 ovarian
OVCAR-5 ovarian = test system: OVCAR-5 ovarian
OVCAR-8 ovarian = test system: OVCAR-8 ovarian
PC-3 prostate = test system: PC-3 prostate
RPMI-8226 leukemia = test system: RPMI-8226 leukemia
RXF 393 renal = test system: RXF 393 renal
SF-268 CNS = test system: SF-268 CNS
SF-295 CNS = test system: SF-295 CNS
SF-539 CNS = test system: SF-539 CNS
SK-MEL-2 melanoma = test system: SK-MEL-2 melanoma
SK-MEL-28 melanoma = test system: SK-MEL-28 melanoma
SK-MEL-5 melanoma = test system: SK-MEL-5 melanoma
SK-OV-3 ovarian = test system: SK-OV-3 ovarian
SN12C renal = test system: SN12C renal
SNB-19 CNS = test system: SNB-19 CNS
SNB-75 CNS = test system: SNB-75 CNS
SR leukemia = test system: SR leukemia
SW-620 colon = test system: SW-620 colon
T-47D breast = test system: T-47D breast
TK-10 renal = test system: TK-10 renal
U251 CNS = test system: U251 CNS
UACC-257 melanoma = test system: UACC-257 melanoma
UACC-62 melanoma = test system: UACC-62 melanoma
UO-31 renal = test system: UO-31 renal
LOX IMVI melanoma = test system: LOX IMVI melanoma
MALME-3M melanoma = test system: MALME-3M melanoma
MOLT-4 leukemia = test system: MOLT-4 leukemia
NCI-H460 lung = test system: NCI-H460 lung

SMILES: O=C1CC(c2ccsc2)n2cccc21 (centres undefined)
- TGI (786-0 renal): > 100 µM
- TGI (A498 renal): > 100 µM
- TGI (A549 NSCLC): > 100 µM
- TGI (ACHN renal): > 100 µM
- TGI (CAKI-1 renal): > 100 µM
- TGI (CCRF-CEM leukemia): > 100 µM
- TGI (COLO 205 colon): > 100 µM
- TGI (DU-145 prostate): > 100 µM
- TGI (EKVX NSCLC): > 100 µM
- TGI (HCC-2998 colon): > 100 µM
- TGI (HCT-116 colon): > 100 µM
- TGI (HCT-15 colon): > 100 µM
- TGI (HL-60(TB) leukemia): > 100 µM
- TGI (HOP-62 NSCLC): > 100 µM
- TGI (HOP-92 NSCLC): > 100 µM
- TGI (HS 578T breast): > 100 µM
- TGI (HT29 colon): > 100 µM
- TGI (IGROV1 ovarian): > 100 µM
- TGI (K-562 leukemia): > 100 µM
- TGI (KM12 colon): > 100 µM
- TGI (M14 melanoma): > 100 µM
- TGI (MCF7 breast): > 100 µM
- TGI (MDA-MB-231 breast): > 100 µM
- TGI (MDA-MB-435): > 100 µM
- TGI (NCI-H226 lung): > 100 µM
- TGI (NCI-H23 lung): > 100 µM
- TGI (NCI-H522 lung): > 100 µM
- TGI (NCI/ADR-RES ovarian): > 100 µM
- TGI (OVCAR-3 ovarian): > 100 µM
- TGI (OVCAR-4 ovarian): > 100 µM
- TGI (OVCAR-5 ovarian): > 100 µM
- TGI (OVCAR-8 ovarian): > 100 µM
- TGI (PC-3 prostate): > 100 µM
- TGI (RPMI-8226 leukemia): > 100 µM
- TGI (RXF 393 renal): > 100 µM
- TGI (SF-268 CNS): > 100 µM
- TGI (SF-295 CNS): > 100 µM
- TGI (SF-539 CNS): > 100 µM
- TGI (SK-MEL-2 melanoma): > 100 µM
- TGI (SK-MEL-28 melanoma): > 100 µM
- TGI (SK-MEL-5 melanoma): > 100 µM
- TGI (SK-OV-3 ovarian): > 100 µM
- TGI (SN12C renal): > 100 µM
- TGI (SNB-19 CNS): > 100 µM
- TGI (SNB-75 CNS): > 100 µM
- TGI (SR leukemia): > 100 µM
- TGI (SW-620 colon): > 100 µM
- TGI (T-47D breast): > 100 µM
- TGI (TK-10 renal): > 100 µM
- TGI (U251 CNS): > 100 µM
- TGI (UACC-257 melanoma): > 100 µM
- TGI (UACC-62 melanoma): > 100 µM
- TGI (UO-31 renal): > 100 µM

SMILES: C=CC1C(CC2OC(CO)C(O)C(O)C2O)OC=C2C(=O)OCCC21O (centres undefined)
- GI50 (786-0 renal): 2.67 µM
- TGI (786-0 renal): 17.5 µM
- GI50 (A549 NSCLC): 18.5 µM
- TGI (A549 NSCLC): 48.9 µM
- GI50 (ACHN renal): 29.8 µM
- TGI (ACHN renal): > 100 µM
- GI50 (CAKI-1 renal): 30.6 µM
- TGI (CAKI-1 renal): 78.7 µM
- GI50 (CCRF-CEM leukemia): 5.32 µM
- TGI (CCRF-CEM leukemia): 28.9 µM
- GI50 (COLO 205 colon): 19.9 µM
- TGI (COLO 205 colon): 45.2 µM
- GI50 (DU-145 prostate): 13.8 µM
- TGI (DU-145 prostate): 62.6 µM
- GI50 (EKVX NSCLC): 39.8 µM
- TGI (EKVX NSCLC): > 100 µM
- GI50 (HCC-2998 colon): 15.3 µM
- TGI (HCC-2998 colon): 34.4 µM
- GI50 (HCT-116 colon): 16.2 µM
- TGI (HCT-116 colon): 32.1 µM
- GI50 (HCT-15 colon): 19.5 µM
- TGI (HCT-15 colon): 49.9 µM
- GI50 (HOP-62 NSCLC): 13.4 µM
- TGI (HOP-62 NSCLC): 35.5 µM
- GI50 (HOP-92 NSCLC): 1.68 µM
- TGI (HOP-92 NSCLC): 9.35 µM
- GI50 (HS 578T breast): 34.6 µM
- TGI (HS 578T breast): > 100 µM
- GI50 (HT29 colon): 2.23 µM
- TGI (HT29 colon): 8.02 µM
- GI50 (IGROV1 ovarian): 8.36 µM
- TGI (IGROV1 ovarian): 53.1 µM
- GI50 (K-562 leukemia): 6.6 µM
- TGI (K-562 leukemia): > 100 µM
- GI50 (KM12 colon): 3.05 µM
- TGI (KM12 colon): 30.1 µM
- GI50 (LOX IMVI melanoma): 8.37 µM
- TGI (LOX IMVI melanoma): 23.4 µM
- GI50 (M14 melanoma): 22.3 µM
- TGI (M14 melanoma): 65.7 µM
- GI50 (MALME-3M melanoma): 17.8 µM
- TGI (MALME-3M melanoma): 51 µM
- GI50 (MCF7 breast): 21.6 µM
- TGI (MCF7 breast): > 100 µM
- GI50 (MDA-MB-231 breast): 40.9 µM
- TGI (MDA-MB-231 breast): 99.6 µM
- GI50 (MDA-MB-435): 13.7 µM
- TGI (MDA-MB-435): 44.5 µM
- GI50 (MOLT-4 leukemia): 3.78 µM
- TGI (MOLT-4 leukemia): 30.5 µM
- GI50 (NCI-H226 lung): 20.9 µM
- TGI (NCI-H226 lung): 76.5 µM
- GI50 (NCI-H23 lung): 24.9 µM
- TGI (NCI-H23 lung): 61.9 µM
- GI50 (NCI-H460 lung): 28.4 µM
- TGI (NCI-H460 lung): > 100 µM
- GI50 (NCI-H522 lung): 4.72 µM
- TGI (NCI-H522 lung): 34.5 µM
- GI50 (NCI/ADR-RES ovarian): 24 µM
- TGI (NCI/ADR-RES ovarian): > 100 µM
- GI50 (OVCAR-3 ovarian): 12.4 µM
- TGI (OVCAR-3 ovarian): 27.6 µM
- GI50 (OVCAR-4 ovarian): 5.82 µM
- TGI (OVCAR-4 ovarian): 30.2 µM
- GI50 (OVCAR-5 ovarian): 14.4 µM
- TGI (OVCAR-5 ovarian): 44.5 µM
- GI50 (OVCAR-8 ovarian): 16.7 µM
- TGI (OVCAR-8 ovarian): 62.4 µM
- GI50 (PC-3 prostate): 11 µM
- TGI (PC-3 prostate): 27.9 µM
- GI50 (RPMI-8226 leukemia): 2.32 µM
- TGI (RPMI-8226 leukemia): 8.43 µM
- GI50 (SF-268 CNS): 24.3 µM
- TGI (SF-268 CNS): 89 µM
- GI50 (SF-295 CNS): 23.5 µM
- TGI (SF-295 CNS): 62.5 µM
- GI50 (SK-MEL-2 melanoma): 22.4 µM
- TGI (SK-MEL-2 melanoma): 71.4 µM
- GI50 (SK-MEL-28 melanoma): 0.116 µM
- TGI (SK-MEL-28 melanoma): 19.2 µM
- GI50 (SK-MEL-5 melanoma): 15.7 µM
- TGI (SK-MEL-5 melanoma): 37.5 µM
- GI50 (SK-OV-3 ovarian): 46.6 µM
- TGI (SK-OV-3 ovarian): > 100 µM
- GI50 (SN12C renal): 20.8 µM
- TGI (SN12C renal): 75.6 µM
- GI50 (SNB-19 CNS): 13.8 µM
- TGI (SNB-19 CNS): 37.1 µM
- GI50 (SNB-75 CNS): 1.84 µM
- TGI (SNB-75 CNS): 18.6 µM
- GI50 (SR leukemia): 3.32 µM
- TGI (SR leukemia): 26.5 µM
- GI50 (SW-620 colon): 5.38 µM
- TGI (SW-620 colon): 29.9 µM
- GI50 (T-47D breast): 32 µM
- TGI (T-47D breast): > 100 µM
- GI50 (TK-10 renal): 26 µM
- TGI (TK-10 renal): 90.3 µM
- GI50 (U251 CNS): 13.2 µM
- TGI (U251 CNS): 28 µM
- GI50 (UACC-257 melanoma): 20.4 µM
- TGI (UACC-257 melanoma): 50.9 µM
- GI50 (UACC-62 melanoma): 21.2 µM
- TGI (UACC-62 melanoma): 53.3 µM
- GI50 (UO-31 renal): 16.4 µM
- TGI (UO-31 renal): > 100 µM
